According to US20130053430A1, “MODULATION OF CETP EXPRESSION” (Isis Pharmaceuticals, Inc., priority 2010, published 2013):
e = 2'-O-(2-methoxyethyl) (MOE); d = 2'-deoxy (DNA)

Assays:
[1] = tested on: ABCA1; assay: Liver ABCA1 mRNA expression (Example 9); type: in vivo, mice; conditions: percentage increase or decrease compared to PBS control, s.c. 6 weeks
Description: (§1) Another group received subcutaneous injections of control oligonucleotide ISIS 141923 at a dose of 50 mg/kg/week for 6 weeks. One group of mice received subcutaneous injections of PBS for 6 weeks. The PBS-injected group served as the control group to which treatment groups were compared.
(§2) Liver RNA was isolated for real-time PCR analysis of ABCA1, ApoAI, and SR-B1. ATP-binding cassette transporter ABCA1 (member 1 of human transporter sub-family ABCA), also known as the cholesterol efflux regulatory protein (CERP) is a protein which in humans is encoded by the ABCA1 gene (Luciani, M. F. et al., Genomics. 1994. 21: 150-9). This transporter is a major regulator of cellular cholesterol and phospholipid homeostasis. Apolipoprotein A-I is a protein that in humans is encoded by the APOA1 gene (Breslow, J. L. et al., Proc. Natl. Acad. Sci. USA 1982. 79: 6861-5). Apolipoprotein A-I is the major protein component of HDL in plasma. The protein promotes cholesterol efflux from tissues to the liver for excretion. Scavenger receptor class B, type I (SR-BI) is an integral membrane protein found in numerous cell types/tissues, including the liver and adrenal (Acton, S. L. et al., J. Biol. Chem. 1994. 269: 21003-21009). It is best known for its role in facilitating the uptake of cholesteryl esters from high-density lipoproteins in the liver. Therefore, all three genes have a role in HDL regulation.
(§3) The primer probe set RTS1204 (forward sequence […], designated herein as SEQ ID NO: 122, reverse sequence […], designated herein as SEQ ID NO: 123, probe sequence AGGCCCAGACCTGTAAAGGCGAAGX, with X a fluorophore, designated herein as SEQ ID NO: 124) was used to measure abca1 levels. The primer probe set RTS14737 (forward sequence […], designated herein as SEQ ID NO: 125, reverse sequence […], designated herein as SEQ ID NO: 126, probe sequence CTGCAGGAACGGCTGGGCCCX, with X a fluorophore, designated herein as SEQ ID NO: 127) was used to measure apoA1 levels. The primer probe set mSRB-1 (forward sequence […], designated herein as SEQ ID NO: 128, reverse sequence ATGCGACTTGTCAGGCTGG, designated herein as SEQ ID NO: 129, probe sequence CGTGGAGAACCGCAGCCTCCATTX, with X a fluorophore, designated herein as SEQ ID NO: 130) was used to measure sr-b1 levels. The results are presented in Table 44 as percentage increase or decrease in the respective expression levels compared to the PBS control. Both primer probe sets produced similar results. The RNA expression levels were normalized to murine Cyclophilin. Treatment with ISIS 349517 caused an increase in ApoA1 and SR-B1 levels.

[2] = tested on: SR-B1; assay: Liver SR-B1 mRNA expression (Example 9); type: in vivo, mice; conditions: s.c. 6 weeks; for Percent inhibition of liver mRNA expression, SR-B1: percentage increase or decrease compared to PBS control
Description: as §1, §2, §3

[3] = Plasma glucose in huCETP transgenic mice (Example 5); type: in vivo; conditions: 50 mg/kg i.p. twice per week
Description: The mice were divided into five treatment groups. The first four groups received intraperitoneal injections of ISIS 349511, ISIS 349512, ISIS 349515, or ISIS 349517 at a dose of 50 mg/kg twice per week for 6 weeks. The fifth group received intraperitoneal injections of saline twice weekly for 6 weeks.
Plasma glucose values were determined using a Beckman Glucose Analyzer II (Beckman Coulter) by a glucose oxidase method (Lott, J. A. et al., Clin. Chem. 21: 1754-1760, 1975).

[4] = tested on: human CETP mRNA; assay: Liver CETP mRNA in huCETP transgenic mice, normal or cholesterol-enriched chow (Example 6); type: in vivo; conditions: 50 mg/kg s.c. twice per week for 6 weeks, relative to PBS control
Description: Male huCETP transgenic mice were maintained on a 12-hour light/dark cycle. One group of mice was fed ad libitum normal Purina mouse chow and a second group was fed 0.5% cholesterol-enriched chow (Harlan Teklad TD.97234, Harlan Laboratories, Indianapolis, Ind.). Animals were acclimated for at least 7 days in the research facility before initiation of the experiment. Antisense oligonucleotides (ASOs) were prepared in buffered saline (PBS) and sterilized by filtering through a 0.2 micron filter. Oligonucleotides were dissolved in 0.9% PBS for injection.
The normal chow-fed mice were divided into three treatment groups. The cholesterol-enriched chow-fed mice were divided into three treatment groups. […] One chow-fed group and one cholesterol-enriched chow-fed group received subcutaneous injections of saline twice weekly for 6 weeks. The saline-injected groups served as the control groups to which the corresponding oligonucleotide-treated groups were compared.
Twenty four hours after the final dose, the animals were sacrificed and liver tissue was isolated. Liver RNA was isolated for real-time PCR analysis of CETP. The primer probe set hCETP was used to measure CETP levels. As presented in Table 16, treatment with antisense oligonucleotides reduced CETP mRNA expression. The RNA expression levels were normalized to murine Cyclophilin. The results are expressed as percent inhibition of CETP mRNA, relative to the PBS control. There was no difference in inhibition of CETP mRNA levels in normal chow-fed and cholesterol-enriched chow fed mice.

[5] = tested on: CETP mRNA; assay: Liver CETP mRNA in huApoB/huCETP/mLDLr mouse model for cardiovascular disease (Example 7); type: in vivo, human; conditions: huApoB+/−huCETP+/−mLDLr+/− mice (Groups B-E); ASO 25 mg/kg s.c. twice per week, nicotinic acid 2 g/kg/day s.c. + 1% in diet, 6 weeks; relative to PBS control (Group A)
Description: The saline-injected group served as the control group to which oligonucleotide-treated groups were compared. […] This group served a negative control for the effects of the antisense oligonucleotides against CETP. The groups are further described in Table 27, and are designated letters A-F, by which they will be referred from henceforth.

| Substance | Percent inhibition of liver mRNA expression, ABCA1 ([1]; Dose 50 mg/kg/wk) | Percent inhibition of liver mRNA expression, SR-B1 ([2]; Dose 50 mg/kg/wk) | Glucose levels ([3]; week 3) [mg/dL] | Glucose levels ([3]; week 6) [mg/dL] | Percent inhibition of liver CETP mRNA expression ([4]; Cholesterol chow) [%] | Percent inhibition of liver CETP mRNA expression ([4]; Normal chow) [%] | Percent inhibition of liver CETP mRNA expression [5] [%] | Percent inhibition of liver mRNA expression, ABCA1 ([1]; Dose 1.5 mg/kg/wk) | Percent inhibition of liver mRNA expression, ABCA1 ([1]; Dose 5 mg/kg/wk) | Percent inhibition of liver mRNA expression, ABCA1 ([1]; Dose 15 mg/kg/wk) [%] | SR-B1 levels (liver mRNA) ([2]; huCETP transgenic mice, Western diet) | Percent inhibition of liver mRNA expression, SR-B1 ([2]; Dose 1.5 mg/kg/wk) | Percent inhibition of liver mRNA expression, SR-B1 ([2]; Dose 5 mg/kg/wk) | Percent inhibition of liver mRNA expression, SR-B1 ([2]; Dose 15 mg/kg/wk) |
| --- | --- | --- | --- | --- | --- | --- | --- | --- | --- | --- | --- | --- | --- | --- |
| ISIS 141923: CCTTCCCTGAAGGTTCCTCC, 5-10-5 MOE gapmer, a control oligonucleotide which has no known murine target (sugars from the 5' end e5 d10 e5, backbone and methylation of C not given here) [reference compound] | +16% | +37% |  |  |  |  |  |  |  |  |  |  |  |  |
| ISIS 349517: 5-10-5 MOE gapmer CAGCACTTTAATGCCAGTGG (sugars from the 5' end e5 d10 e5, backbone and methylation of C not given here) | −15% | +42% | 333 | 254 | 98 | 95 | 86 | +6% | +15% | −6 | increase | +33% | +34% | +50% |
| ISIS 349511: 5-10-5 MOE gapmer CCCGACCTCCTTGGAGACTT (sugars from the 5' end e5 d10 e5, backbone and methylation of C not given here) |  |  | 286 | 245 | 88 | 89 | 70 |  |  |  |  |  |  |  |
